The values below come from the RepoRT retention time repository.

This data set can be described thus: A: acetonitrile + 0.1% formic acid + 10 mM ammonium formate; B: 5% water + 95% acetonitrile + 0.1% formic acid + 10 mM ammonium formate; gradient (min/%B) 0/10 2/10 22/100 27/100 27.1/10. To be noted: stereoisomer not certain.

On to `CCC(=C(c1ccccc1)c1ccc(OCCN(C)C)cc1)c1ccccc1` [Tamoxifen], for which the LC retention time was found to be 0.887 min.
Then `Nc1nc2c(ncn2C2CC(O)C(COP(=O)(O)O)O2)c(=O)[nH]1` (stereo not given) [2'-Deoxyguanosine 5'-monophosphate], with 7.1 min.
As for `NC(CCCC(N)C(=O)O)C(=O)O` (stereo not given) [2,6-Diaminopimelic Acid], the figure is 8.06 min; as for `COC(=O)CCCC(=O)O` [Monomethyl glutarate], 0.562 min; as for `N[C@@H](Cc1ccc(O)cc1)C(=O)O` [L-Tyrosine], 5.62 min.
As to `CCN(Cc1ccncc1)C(=O)C(CO)c1ccccc1` (stereo not given) [Tropicamide], the LC retention time amounted to 0.641 min.
Then `CC(C)[C@H](N)C(=O)O` [L-Valine], with 5.92 min.
As for `C=CC1CN2CCC1CC2C(O)c1ccnc2ccccc12` (stereo not given) [Cinchonidine], the LC retention time is 2.2 min.
As for `CC1OC(OC2C(Oc3cc(O)c4c(c3)OC(c3ccc(O)cc3)CC4=O)OC(CO)C(O)C2O)C(O)C(O)C1O` (stereo not given) [Naringin], the figure is 3.67 min; as for `NCCC(=O)NC(Cc1cnc[nH]1)C(=O)O` [L-Carnosine], 7.75 min; as for `CC(C)=CCCC(C)CC=O` (single isomer, unassigned; (-)) [(-)-Citronellal], 0.405 min.
As for `CC(C(=O)O)c1cccc(C(=O)c2ccccc2)c1` (stereo not given) [Ketoprofen], the figure is 0.455 min; as for `OC(CCN1CCCCC1)(c1ccccc1)C1CCCCC1` (stereo not given) [Benzhexol], 0.91 min.
Then `O=C(O)CCc1c[nH]c2ccccc12` [3-Indolepropionic acid], with 0.467 min.
As for `CCCCOC(=O)CCCCCCCCC(=O)OCCCC` [Dibutyl sebacate], the LC retention time came out at 0.404 min.
`NCCCC[C@H](N)C(=O)O` [L-Lysine]: the LC retention time was 7.67 min.
As for `Cc1ncc(COP(=O)(O)O)c(C=O)c1O` [Pyridoxal 5'-phosphate], the figure is 5.97 min; as for `CC(C)C[C@H](N)C(=O)O` [L-Leucine], 5.01 min; as for `NCCc1cnc[nH]1` [Histamine], 7.92 min.
Then `CCN1CCCC1CNC(=O)c1cc(S(N)(=O)=O)ccc1OC` (racemic) [(+/-)-Sulpiride], with 2.67 min; and `COc1cccc(OC)c1C(=O)O` [2,6-Dimethoxybenzoic acid], with 0.628 min.
As for `CCN(Cc1cccc(S(=O)(=O)O)c1)c1ccc(C(=C2C=CC(=[N+](CC)Cc3cccc(S(=O)(=O)O)c3)C=C2)c2ccccc2S(=O)(=O)[O-])cc1` [Erioglaucine], the LC retention time turned out to be 4.34 min.
Then `CC(=O)N[C@@H](Cc1ccc(O)cc1)C(=O)O` [N-Acetyl-L-tyrosine], with 2.85 min; and `Cc1occc(=O)c1O` [3-Hydroxy-2-methyl-4-pyrone], with 0.613 min.
As for `NS(=O)(=O)c1cc(C(=O)O)c(NCc2ccco2)cc1Cl` [Furosemide], the figure is 0.586 min.
`C=C1CCC(O)CC1=CC=C1CCCC2(C)C1CCC2C(C)CCCC(C)C` (stereo not given) [Vitamin D3]: the LC retention time turned out to be 0.407 min.
As for `CCOC(=O)c1cncn1C(C)c1ccccc1` (stereo not given) [Etomidate], the figure is 0.602 min; as for `Cc1cc2nc3c(=O)[nH]c(=O)nc-3n(CC(O)C(O)C(O)COP(=O)(O)O)c2cc1C` (stereo not given) [Riboflavin 5'-Monophosphate], 6.38 min; as for `O=c1[nH]c(=O)c2ncn(C3OC(COP(=O)(O)O)C(O)C3O)c2[nH]1` (stereo not given) [Xanthosine 5'-monophosphate], 7.42 min.
As for `CCCCC(=O)N(Cc1ccc(-c2ccccc2-c2nn[nH]n2)cc1)C(C(=O)O)C(C)C` (stereo not given) [Valsartan], the figure is 0.733 min; as for `COc1ccc(Cl)cc1C(=O)NCCc1ccc(S(=O)(=O)NC(=O)NC2CCCCC2)cc1` [Glibenclamide], 0.446 min; as for `CC(=O)CCC(=O)O` [Levulinic acid], 0.421 min.
Then `CSCC[C@H](N)C(=O)O` [L-Methionine], with 5.97 min.
As to `NCCc1ccc(O)cc1` [Tyramine], the LC retention time is 3.19 min.
Then `CNC(=O)c1cccnc1` [N'-Methylnicotinamide], with 0.564 min; and `CCc1cccc2c3c([nH]c12)C(CC)(CC(=O)O)OCC3` (stereo not given) [Etodolac], with 0.453 min; and `Cc1noc(NS(=O)(=O)c2ccc(N)cc2)c1C` [Sulfisoxazole], with 0.449 min.
As for `CCCCCCCCCCCCCCCC(=O)OCC(COP(=O)(O)O)OC(=O)CCCCCCCCCCCCCCC` (stereo not given) [1,2-Dipalmitoyl-sn-glycero-3-phosphate], the figure is 2.45 min.
Then `CC(=O)NC1C(O)CC(O)(C(=O)O)OC1C(O)C(O)CO` (stereo not given) [N-Acetylneuraminic acid], with 6.84 min; and `NC(CSCC(=O)O)C(=O)O` (stereo not given) [Carbocysteine], with 6.96 min; and `CC(=O)NCCCCNCCCN` [N8-Acetylspermidine], with 7.25 min.
As for `Nc1ccc(O)c(C(=O)O)c1` [5-Aminosalicylic acid], the LC retention time came out at 1.82 min.
As for `CN(C)CCCN1c2ccccc2CCc2ccc(Cl)cc21` [Clomipramine], the figure is 0.942 min; as for `CC(=O)NC(CO)C(=O)O` (racemic) [N-Acetyl-DL-serine], 5.82 min.
As for `CCN(CC)CC#CCOC(=O)C(O)(c1ccccc1)C1CCCCC1` (stereo not given) [Oxybutynin], the figure is 0.847 min.
As for `COc1ccc(CCN(C)CCCC(C#N)(c2ccc(OC)c(OC)c2)C(C)C)cc1OC` (racemic) [(+/-)-Verapamil], the figure is 0.815 min.
`CC(=O)NC(CCC(N)=O)C(=O)O` [N-alpha-Acetyl-L-glutamine]: the LC retention time is 5.85 min.
Then `COC(=O)C1C2CC3c4[nH]c5cc(OC)ccc5c4CCN3CC2CC(OC(=O)c2cc(OC)c(OC)c(OC)c2)C1OC` (stereo not given) [Reserpine], with 0.769 min.
Then `CNCCc1ccc(O)cc1` [N-Methyltyramine], with 2.53 min; and `CC(CN)C(=O)O` (stereo not given) [3-Aminoisobutanoic acid], with 5.88 min; and `O=c1ccn(C2OC(COP(=O)(O)OP(=O)(O)O)C(O)C2O)c(=O)[nH]1` (stereo not given) [Uridine 5'-diphosphate], with 8.14 min.
Then `OCC(O)C(O)C(OC1OC(CO)C(O)C(O)C1O)C(O)CO` (stereo not given) [Maltitol], with 6.59 min.
For the compound `N[C@H]1C(O)O[C@H](CO)[C@@H](O)[C@@H]1O` (stereo partly drawn) [D-(+)-Glucosamine], the LC retention time worked out at 6.72 min.
With `CC=C(C)C(=O)NCC(=O)O` [N-Tiglylglycine], the LC retention time was found to be 1.97 min.
As for `NCCOP(=O)(O)O` [O-Phosphorylethanolamine], the figure is 7.28 min; as for `N[C@@H](CSSC[C@H](N)C(=O)O)C(=O)O` [L-Cystine], 8.16 min; as for `O=C(CO)[C@@H](O)[C@H](O)[C@H](O)COP(=O)(O)O` [D-Fructose-6-phosphate], 7.36 min.
Then `Nc1nc2c(ncn2C2OC(COP(=O)(O)OP(=O)(O)O)C(O)C2O)c(=O)[nH]1` (stereo not given) [Guanosine 5'-diphosphate], with 9.21 min; and `O=C(O)C=CCCCCCCCCC(=O)O` [Traumatic acid], with 0.561 min.
As for `NCCc1ccc(O)c(O)c1` [Dopamine], the figure is 4.22 min; as for `O=C(CCc1ccc(O)cc1)c1c(O)cc(O)cc1OC1OC(CO)C(O)C(O)C1O` (stereo not given) [Phloridzin], 1.25 min; as for `COc1ccc2c(c1OC)=CN1CCc3cc4c(cc3C1C=2)OCO4` (stereo not given) [Berberine], 0.872 min.
Take `O=C(O)CCCCCCC(=O)NCC(=O)O` [Suberyl Glycine]: the LC retention time was 5.46 min.
As for `CC(=O)Nc1ccc(O)cc1` [4-Acetamidophenol], the figure is 0.477 min.
Regarding `NCCS(=O)(=O)O` [Taurine], the LC retention time came to 5.82 min.
Then `CC(C)(CO)C(O)C(=O)NCCC(=O)O` (single isomer, unassigned; (+)) [(+)-Pantothenic acid], with 2.17 min; and `NC(CCC(=O)NC(CS)C(=O)NCC(=O)O)C(=O)O` [L-Glutathione reduced], with 7.03 min; and `O=C(O)CCCCCC(=O)O` [Pimelic acid], with 0.909 min.
As for `NC(=O)NC(CC(=O)O)C(=O)O` (stereo not given) [Ureidosuccinic acid], the figure is 5.96 min; as for `N#CC(OC1OC(COC2OC(CO)C(O)C(O)C2O)C(O)C(O)C1O)c1ccccc1` (stereo not given) [Amygdalin], 4.24 min; as for `COC(=O)Cc1c[nH]c2ccccc12` [Methyl 3-indolyacetate], 0.431 min.
Then `COc1cc(C=CC(=O)O)cc(OC)c1OC` [3,4,5-Trimethoxycinnamic acid], with 0.47 min.
As to `CCCC(NC(C)C(=O)N1C(C(=O)O)CC2CCCCC21)C(=O)OCC` (stereo not given) [Perindopril erbumine], the LC retention time worked out at 0.553 min.
As for `CC(CS)C(=O)N1CCCC1C(=O)O` (stereo not given) [Captopril], the figure is 1.1 min; as for `CC(C=CC1=C(C)CCCC1(C)C)=CC=CC(C)=CC(=O)O` [Retinoic Acid], 0.433 min.
As for `OCCc1c[nH]c2ccccc12` [Indole-3-ethanol], the figure is 1.31 min; as for `N[C@@H](CCSSCC[C@H](N)C(=O)O)C(=O)O` [L-Homocystine], 7.57 min; as for `CN(C)CCC=C1c2ccccc2CCc2ccccc21` [Amitriptyline], 0.977 min.
Turning to `C=C1CC23CCC4C(C)(C(=O)OC5OC(CO)C(O)C(O)C5O)CCCC4(C)C2CCC1(OC1OC(CO)C(O)C(O)C1OC1OC(CO)C(O)C(O)C1O)C3` (stereo not given) [Stevioside], the LC retention time was determined as 4.85 min.
Regarding `NC(=O)CC[C@H](N)C(=O)O` [L-Glutamine], the LC retention time is 6.54 min.
